Experiments:
Assay type in all cases: cell-based, human
MCF-7 cell line = assay: MTT assay, breast cancer MCF-7 cell line; settings: for IC50: Homo sapiens, MCF7, 48 h, read-out: IC50 against MCF-7; for Activity against MCF-7 compared to MTX (in words): MTT assay; for times greater efficacy than MTX against MCF-7: ratio to MTX IC50
A-375 cell line = assay: MTT assay, melanoma A-375 cell line; settings: for IC50: Homo sapiens, A-375, 48 h, read-out: IC50 against A375; for Viability of A375 (in words): 15.62–500 μM, Fig. 6A
HEK-293 cell line = assay: MTT assay, toxicity on normal cell line HEK-293; settings: for IC50: Homo sapiens, HEK293, 48 h, read-out: IC50 against HEK-293; for Viability of HEK-293 (in words): 15.62–500 μM

Row | SMILES | IC50 (MCF-7 cell line) [µM] | IC50 (A-375 cell line) [µM] | IC50 (HEK-293 cell line) [µM] | Activity against MCF-7 compared to MTX (in words) (MCF-7 cell line) | Toxicity against HEK-293 at 500 μM (in words) (HEK-293 cell line; 500 μM, Fig. 6C) | times greater efficacy than MTX against MCF-7 (MCF-7 cell line) [times] | Viability of HEK-293 (in words) (HEK-293 cell line; Fig. 6C) | Viability of A375 (in words) (A-375 cell line) | Toxicity to HEK-293 compared to MTX (in words) (HEK-293 cell line; MTT assay) | Viability of MCF-7 (in words) (MCF-7 cell line; 15.62–500 μM, Fig. 6B) | Toxicity to HEK-293 cells (in words) (HEK-293 cell line; MTT assay, normal cell line)
1 | COc1ccc(/C=C/C(=O)c2ccc(Oc3nc4c(c(=O)n(C)c(=O)n4C)n3C)cc2)cc1 [Compound 4h, (E)-8-(4-(3-(4-Methoxyphenyl)acryloyl)phenoxy)-1,3,7-trimethyl-1H-purine-2,6(3H,7H)-dione] | > 500 | > 500 | > 500 | – | – | – | – | – | – | – | –
2 | Cn1c(=O)c2c(nc(Oc3ccc(C(=O)/C=C/c4cccc([N+](=O)[O-])c4)cc3)n2C)n(C)c1=O [Compound 4f, (E)-1,3,7-Trimethyl-8-(4-(3-(3-nitrophenyl)acryloyl)phenoxy)-1H-purine-2,6(3H,7H)-dione] | > 500 | > 500 | > 500 | – | – | – | – | – | – | – | –
3 | Cc1ccc(/C=C/C(=O)c2ccc(Oc3nc4c(c(=O)n(C)c(=O)n4C)n3C)cc2)cc1 [Compound 4a, (E)-1,3,7-Trimethyl-8-(4-(3-p-tolylacryloyl)phenoxy)-1H-purine-2,6(3H,7H)-dione] | 38 ± 3.7 | 279 ± 2.3 | 407 ± 3.1 | activities surpassing that of MTX | – | – | – | – | – | – | –
4 | COc1ccc(/C=C/C(=O)c2ccc(Oc3nc4c(c(=O)n(C)c(=O)n4C)n3C)cc2)c(OC)c1 [Compound 4g, (E)-8-(4-(3-(2,4-Dimethoxyphenyl)acryloyl)phenoxy)-1,3,7-trimethyl-1H-purine-2,6(3H,7H)-dione] | > 500 | 425 ± 3.5 | > 500 | – | – | – | – | – | – | – | –
5 | CN(Cc1cnc2nc(N)nc(N)c2n1)c1ccc(C(=O)N[C@@H](CCC(=O)O)C(=O)O)cc1 [MTX, methotrexate, reference compound] | 343 ± 3.6 | 418 ± 2 | 199 ± 2.4 | – | highest toxicity | – | – | – | – | – | –
6 | Cn1c(=O)c2c(nc(Oc3ccc(C(=O)/C=C/c4ccc(Cl)cc4)cc3)n2C)n(C)c1=O [Compound 4e, (E)-8-(4-(3-(4-Chlorophenyl)acryloyl)phenoxy)-1,3,7-trimethyl-1H-purine-2,6(3H,7H)-dione] | 35 ± 2.2 | 273 ± 3.4 | 386 ± 3.2 | activities surpassing that of MTX | – | ~10 | – | – | – | – | –
7 | Cn1c(=O)c2c(nc(Oc3ccc(C(=O)/C=C/c4ccc(Cl)cc4Cl)cc3)n2C)n(C)c1=O [Compound 4b, (E)-8-(4-(3-(2,4-Dichlorophenyl)acryloyl)phenoxy)-1,3,7-trimethyl-1H-purine-2,6(3H,7H)-dione] | 230 ± 3.2 | 325 ± 3.1 | 347 ± 4.2 | – | – | – | – | – | – | – | –
8 | Cn1c(=O)c2c(nc(Oc3ccc(C(=O)/C=C/c4ccccc4Cl)cc3)n2C)n(C)c1=O [Compound 4i, (E)-8-(4-(3-(2-Chlorophenyl)acryloyl)phenoxy)-1,3,7-trimethyl-1H-purine-2,6(3H,7H)-dione] | 108 ± 3.1 | 111 ± 1.9 | 162 ± 4.2 | – | – | – | more toxic | lowest viability values | more toxic | – | –
9 | Cn1c(=O)c2c(nc(Oc3ccc(C(=O)/C=C/c4c(Cl)cccc4Cl)cc3)n2C)n(C)c1=O [Compound 4j, (E)-8-(4-(3-(2,6-Dichlorophenyl)acryloyl)phenoxy)-1,3,7-trimethyl-1H-purine-2,6(3H,7H)-dione] | 181 ± 3.1 | 200 ± 4.3 | 214 ± 4.3 | – | – | – | – | – | – | – | –
10 | Cn1c(=O)c2c(nc(Oc3ccc(C(=O)/C=C/c4ccccc4)cc3)n2C)n(C)c1=O [Compound 4d, (E)-8-(4-Cinnamoylphenoxy)-1,3,7-trimethyl-1H-purine-2,6(3H,7H) dione] | 18 ± 1.9 | 157 ± 4.2 | 220 ± 3.4 | activities surpassing that of MTX | – | ~19 | – | – | – | – | –
11 | COC(=O)c1ccc(/C=C/C(=O)c2ccc(Oc3nc4c(c(=O)n(C)c(=O)n4C)n3C)cc2)cc1 [Compound 4k, (E)-Methyl 4-(3-oxo-3-(4-(1,3,7-trimethyl-2,6-dioxo-2,3,6,7-tetrahydro-1H-purin-8-yloxy)phenyl)prop-1-enyl)benzoate] | 34 ± 3.5 | 92 ± 3.2 | 99 ± 3 | activities surpassing that of MTX | – | ~10 | highest toxicity and lowest viability | lowest viability values | more toxic | lowest viability rate | most toxic
12 | COc1ccccc1/C=C/C(=O)c1ccc(Oc2nc3c(c(=O)n(C)c(=O)n3C)n2C)cc1 [Compound 4c, (E)-8-(4-(3-(2-Methoxyphenyl)acryloyl)phenoxy)-1,3,7-trimethyl-1H-purine-2,6(3H,7H)-dione] | 269 ± 4.5 | 325 ± 3.8 | 451 ± 2.4 | – | – | – | – | – | – | – | –

The next lines start with results.

Row | IC50 (MCF-7 cell line) [µM] | IC50 (A-375 cell line) [µM] | SMILES | IC50 (HEK-293 cell line) [µM] | Activity against MCF-7 compared to MTX (in words) (MCF-7 cell line) | Toxicity against HEK-293 at 500 μM (in words) (HEK-293 cell line; 500 μM, Fig. 6C) | times greater efficacy than MTX against MCF-7 (MCF-7 cell line) [times] | Viability of HEK-293 (in words) (HEK-293 cell line; Fig. 6C) | Viability of A375 (in words) (A-375 cell line) | Toxicity to HEK-293 compared to MTX (in words) (HEK-293 cell line; MTT assay) | Viability of MCF-7 (in words) (MCF-7 cell line; 15.62–500 μM, Fig. 6B) | Toxicity to HEK-293 cells (in words) (HEK-293 cell line; MTT assay, normal cell line)
13 | > 500 | > 500 | Cc1ccc(C(=O)/C=C/c2ccc(Oc3nc4c(c(=O)n(C)c(=O)n4C)n3C)cc2)cc1 [Compound 5d, (E)-1,3,7-Trimethyl-8-(4-(3-oxo-3-p-tolylprop-1-enyl)phenoxy)-1H-purine-2,6(3H,7H)-dione] | > 500 | – | – | – | – | – | – | – | –
14 | 333 ± 2.5 | > 500 | Cn1c(=O)c2c(nc(Oc3ccc(/C=C/C(=O)c4ccc5ccccc5c4)cc3)n2C)n(C)c1=O [Compound 5e, (E)-1,3,7-Trimethyl-8-(4-(3-(naphthalen-2-yl)-3-oxoprop-1-enyl)phenoxy)-1H-purine-2,6(3H,7H)-dione] | > 500 | – | – | – | – | – | – | – | –
15 | > 500 | > 500 | Cn1c(=O)c2c(nc(Oc3ccc(/C=C/C(=O)c4cccc([N+](=O)[O-])c4)cc3)n2C)n(C)c1=O [Compound 5c, (E)-1,3,7-Trimethyl-8-(4-(3-(3-nitrophenyl)-3-oxoprop-1-enyl)phenoxy)-1H-purine-2,6(3H,7H)-dione] | > 500 | – | – | – | – | – | – | – | –
16 | 130 ± 3.4 | 368 ± 3.1 | Cn1c(=O)c2c(nc(Oc3ccc(/C=C/C(=O)c4ccc(Cl)cc4)cc3)n2C)n(C)c1=O [Compound 5f, (E)-8-(4-(3-(4-Chlorophenyl)-3-oxoprop-1-enyl)phenoxy)-1,3,7-trimethyl-1H-purine-2,6(3H,7H)-dione] | 240 ± 3.7 | – | – | – | more toxic | – | – | – | –
17 | 223 ± 3.7 | 275 ± 3.7 | Cn1c(=O)c2c(nc(Oc3ccc(/C=C/C(=O)c4ccc([N+](=O)[O-])cc4)cc3)n2C)n(C)c1=O [Compound 5b, (E)-1,3,7-Trimethyl-8-(4-(3-(4-nitrophenyl)-3-oxoprop-1-enyl)phenoxy)-1H-purine-2,6(3H,7H)-dione] | 419 ± 4.6 | – | – | – | – | – | – | – | –
18 | 249 ± 3.2 | 249 ± 3.6 | COc1ccc(C(=O)/C=C/c2ccc(Oc3nc4c(c(=O)n(C)c(=O)n4C)n3C)cc2)cc1 [Compound 5a, (E)-8-(4-(3-(4-Methoxyphenyl)-3-oxoprop-1-enyl)phenoxy)-1,3,7-trimethyl-1H-purine-2,6(3H,7H)-dione] | > 500 | – | – | – | – | – | – | – | –

— publication PMC11340408 (RSC Advances, 2024)
